Data: ChEMBL document CHEMBL2434940, “Synthesis and antitumor activities of novel α-aminophosphonates dehydroabietic acid derivatives” (Bioorg Med Chem Lett, 2013)
Active and inactive are the calls of the source. The rule behind the calls is not given here.

Key:
NCI-H460 [1] = experiment: Cytotoxicity against human NCI-H460 cells after 48 hrs by MTT assay; type: functional, cell-based; settings: NCI-H460, 48 h
A549 = experiment: Cytotoxicity against human A549 cells after 48 hrs by MTT assay; type: functional, cell-based; settings: A549, 48 h
HepG2 = experiment: Cytotoxicity against human HepG2 cells after 48 hrs by MTT assay; type: functional, cell-based; settings: HepG2, 48 h
SK-OV-3 = experiment: Cytotoxicity against human SKOV3 cells after 48 hrs by MTT assay; type: functional, cell-based; settings: SK-OV-3, 48 h
NCI-H460 [2] = experiment: Cell cycle arrest in human NCI-H460 cells assessed as accumulation at S phase at IC50 by propidium iodide staining-based FACS flow cytometric analysis relative to control; type: functional
NCI-H460 [3] = experiment: Cell cycle arrest in human NCI-H460 cells assessed as accumulation at G2 phase at IC50 by propidium iodide staining-based FACS flow cytometric analysis relative to control; type: functional
NCI-H460 [4] = experiment: Cell cycle arrest in human NCI-H460 cells assessed as accumulation at G1 phase at IC50 by propidium iodide staining-based FACS flow cytometric analysis relative to control; type: functional
NCI-H460 [5] = experiment: Induction of apoptosis in human NCI-H460 cells assessed as early apoptotic cells at 45 uM after 24 hrs by Annexin V-FITC and propidium iodide staining-based FACS flow cytometric analysis (reference value: 1.5%); type: functional
NCI-H460 [6] = experiment: Induction of apoptosis in human NCI-H460 cells assessed as necrotic/late apoptotic cells at 45 uM after 24 hrs by Annexin V-FITC and propidium iodide staining-based FACS flow cytometric analysis (reference value: 0.8%); type: functional
NCI-H460 [7] = experiment: Induction of apoptosis in human NCI-H460 cells assessed as loss of mitochondria membrane potential at 45 uM after 24 hrs by JC-1 staining-based fluorescence microscopic analysis; type: functional, cell-based
NCI-H460 [8] = experiment: Induction of apoptosis in human NCI-H460 cells assessed as apoptotic ratio at 5 uM after 12 hrs by Annexin V-FITC and propidium iodide staining-based FACS flow cytometric analysis relative to control; type: functional
NCI-H460 [9] = experiment: Induction of apoptosis in human NCI-H460 cells assessed as apoptotic ratio at 3 uM after 12 hrs by Annexin V-FITC and propidium iodide staining-based FACS flow cytometric analysis relative to control; type: functional
NCI-H460 [10] = experiment: Induction of apoptosis in human NCI-H460 cells after 12 hrs by Annexin V-FITC and propidium iodide staining-based FACS flow cytometric analysis; type: functional, cell-based
NCI-H460 [11] = experiment: Induction of apoptosis in human NCI-H460 cells assessed as early apoptotic cells at 5 uM after 24 hrs by Annexin V-FITC and propidium iodide staining-based FACS flow cytometric analysis (reference value: 3.8%); type: functional
NCI-H460 [12] = experiment: Induction of apoptosis in human NCI-H460 cells assessed as necrotic/late apoptotic cells at 5 uM after 24 hrs by Annexin V-FITC and propidium iodide staining-based FACS flow cytometric analysis (reference value: 1.9%); type: functional
NCI-H460 [13] = experiment: Induction of apoptosis in human NCI-H460 cells assessed as early apoptotic cells at 5 uM after 12 hrs by Annexin V-FITC and propidium iodide staining-based FACS flow cytometric analysis (reference value: 3.8%); type: functional
NCI-H460 [14] = experiment: Induction of apoptosis in human NCI-H460 cells assessed as necrotic/late apoptotic cells at 5 uM after 12 hrs by Annexin V-FITC and propidium iodide staining-based FACS flow cytometric analysis (reference value: 1.9%); type: functional
NCI-H460 [15] = experiment: Induction of apoptosis in human NCI-H460 cells assessed as loss of mitochondria membrane potential at 5 uM after 12 to 24 hrs by JC-1 staining-based fluorescence microscopic analysis; type: functional, cell-based
NCI-H460 [16] = experiment: Induction of apoptosis in human NCI-H460 cells at 5 uM after 12 to 24 hrs by Hoechst 33258 staining-based fluorescence microscopic analysis; type: functional, cell-based
NCI-H460 [17] = experiment: Cytotoxicity against human NCI-H460 cells at 5 uM after 12 to 24 hrs by AO/EB staining-based fluorescence microscopic analysis; type: cell-based; settings: nci-h460, 5 µM
NCI-H460 [18] = experiment: Induction of apoptosis in human NCI-H460 cells assessed as cell budding at 5 uM after 12 to 24 hrs by AO/EB staining-based fluorescence microscopic analysis; type: functional
NCI-H460 [19] = experiment: Induction of apoptosis in human NCI-H460 cells assessed as pycnosis at 5 uM after 12 to 24 hrs by AO/EB staining-based fluorescence microscopic analysis; type: functional, cell-based
NCI-H460 [20] = experiment: Induction of apoptosis in human NCI-H460 cells assessed as membrane blebbing at 5 uM after 12 to 24 hrs by AO/EB staining-based fluorescence microscopic analysis; type: functional, cell-based

SMILES	IC50 (NCI-H460 [1]) [µM]	IC50 (A549) [µM]	IC50 (HepG2) [µM]	IC50 (SK-OV-3) [µM]	other results
CCOP(=O)(OCC)C(NC(=S)NC(=O)[C@]1(C)CCC[C@]2(C)c3ccc(C(C)C)cc3CC[C@@H]12)c1cccc(F)c1 (stereo partly specified)	27.5	24.4	31.6	13.7	
CCOP(=O)(OCC)C(NC(=S)NC(=O)[C@]1(C)CCC[C@]2(C)c3ccc(C(C)C)cc3CC[C@@H]12)c1cccc(C)c1 (stereo partly specified)	17.8	18.8	37.3	16.6	
CCOP(=O)(OCC)C(NC(=S)NC(=O)[C@]1(C)CCC[C@]2(C)c3ccc(C(C)C)cc3CC[C@@H]12)c1ccc(OC)cc1 (stereo partly specified)	25	15.3	32.1	21.4	
CCOP(=O)(OCC)C(NC(=S)NC(=O)[C@]1(C)CCC[C@]2(C)c3ccc(C(C)C)cc3CC[C@@H]12)c1ccc(C)cc1 (stereo partly specified)	26.4	21.9	30	14.1	
CCOP(=O)(OCC)C(NC(=S)NC(=O)[C@]1(C)CCC[C@]2(C)c3ccc(C(C)C)cc3CC[C@@H]12)c1ccccc1Br (stereo partly specified)	18.6	22.2	27.1	17.4	
CCOP(=O)(OCC)C(NC(=S)NC(=O)[C@]1(C)CCC[C@]2(C)c3ccc(C(C)C)cc3CC[C@@H]12)c1cccc(OC)c1 (stereo partly specified)	15.8	29.6	18	9.96	
O=c1[nH]cc(F)c(=O)[nH]1 [FLUOROURACIL]			30		Activity (NCI-H460 [2]): 28.07%; Activity (NCI-H460 [3]): 0%; Activity (NCI-H460 [4]): 71.93%; Activity (NCI-H460 [5]): 16.8%; Activity (NCI-H460 [6]): 6.5%; Activity (NCI-H460 [7]): Active
CCOP(=O)(OCC)C(NC(=S)NC(=O)[C@]1(C)CCC[C@]2(C)c3ccc(C(C)C)cc3CC[C@@H]12)c1ccccc1OC (stereo partly specified)	3.33	18.4	7.7	18.9	Activity (NCI-H460 [2]): 23.49%; Activity (NCI-H460 [3]): 13.7%; Activity (NCI-H460 [4]): 62.8%; Activity (NCI-H460 [8]): 51.5%; Activity (NCI-H460 [9]): 19.5%; Activity (NCI-H460 [10]): Dose-dependent effect; Activity (NCI-H460 [11]): 35.3%; Activity (NCI-H460 [12]): 16.2%; Activity (NCI-H460 [13]): 14.3%; Activity (NCI-H460 [14]): 5.2%; Activity (NCI-H460 [15]): Active; Activity (NCI-H460 [16]): Active; Activity (NCI-H460 [17]): Non-toxic; Activity (NCI-H460 [18]): Active; Activity (NCI-H460 [19]): Active; Activity (NCI-H460 [20]): Active
CCOP(=O)(OCC)C(NC(=S)NC(=O)[C@]1(C)CCC[C@]2(C)c3ccc(C(C)C)cc3CC[C@@H]12)c1cccc2ccccc12 (stereo partly specified)	32.6	28.3	> 50	19.1	
CCOP(=O)(OCC)C(NC(=S)NC(=O)[C@]1(C)CCC[C@]2(C)c3ccc(C(C)C)cc3CC[C@@H]12)c1cccc(Br)c1 (stereo partly specified)	14.8	19.5	15.2	20.7	
CCOP(=O)(OCC)C(NC(=S)NC(=O)[C@]1(C)CCC[C@]2(C)c3ccc(C(C)C)cc3CC[C@@H]12)c1cccc(Cl)c1 (stereo partly specified)	36.4	26.4	> 50	19.7	
CCOP(=O)(OCC)C(NC(=S)NC(=O)[C@]1(C)CCC[C@]2(C)c3ccc(C(C)C)cc3CC[C@@H]12)c1ccc(Br)cc1 (stereo partly specified)	18.7	20.2	24	14	
CCOP(=O)(OCC)C(NC(=S)NC(=O)[C@]1(C)CCC[C@]2(C)c3ccc(C(C)C)cc3CC[C@@H]12)c1ccccc1Cl (stereo partly specified)	30.7	19.6	24.9	15.3	
CCOP(=O)(OCC)C(NC(=S)NC(=O)[C@]1(C)CCC[C@]2(C)c3ccc(C(C)C)cc3CC[C@@H]12)c1ccccc1 (stereo partly specified)	28.1	24.2	15.2	12.1	
CCOP(=O)(OCC)C(NC(=S)NC(=O)[C@]1(C)CCC[C@]2(C)c3ccc(C(C)C)cc3CC[C@@H]12)c1ccc2ccccc2c1 (stereo partly specified)	22.7	45.7	> 50	> 50	
CCOP(=O)(OCC)C(NC(=S)NC(=O)[C@]1(C)CCC[C@]2(C)c3ccc(C(C)C)cc3CC[C@@H]12)c1ccc(Cl)cc1 (stereo partly specified)	19.7	12.7	26.5	14.5	
CCOP(=O)(OCC)C(NC(=S)NC(=O)[C@]1(C)CCC[C@]2(C)c3ccc(C(C)C)cc3CC[C@@H]12)c1ccc(F)cc1 (stereo partly specified)	4.39	23.4	10.3	13.5	
CCOP(=O)(OCC)C(NC(=S)NC(=O)[C@]1(C)CCC[C@]2(C)c3ccc(C(C)C)cc3CC[C@@H]12)c1ccccc1F (stereo partly specified)	17.8	14	11.4	10	
